This passage reports EC50 results from US10556914B2, “Substituted isoxazolopyridazinones and isothiazolopyridazinones and methods of use” (AbbVie Inc., priority 2015, dated 2020).

Broadly, the EC50 is the concentration needed to bring the measured effect to its halfway point.

Where only a bound is given, the exact number is not on record here.

The target of this experiment is GABA-B receptor (Rattus norvegicus (Rat), UniProt O88871+Q9Z0U4). In words: [35S]GTPgS Binding Assay (rat brain cortex membranes, native receptor). The experiment is classed as biochemical. Conditions: rat cortical membranes; in the presence of 1 μM GABA (EC25); basal binding 0%, maximal binding (1 mM GABA) 100%. How it is done: Preparation of Rat Brain Membranes for Native Receptor Assays
Chain of GABA-B receptor (Q9Z0U4 17-960): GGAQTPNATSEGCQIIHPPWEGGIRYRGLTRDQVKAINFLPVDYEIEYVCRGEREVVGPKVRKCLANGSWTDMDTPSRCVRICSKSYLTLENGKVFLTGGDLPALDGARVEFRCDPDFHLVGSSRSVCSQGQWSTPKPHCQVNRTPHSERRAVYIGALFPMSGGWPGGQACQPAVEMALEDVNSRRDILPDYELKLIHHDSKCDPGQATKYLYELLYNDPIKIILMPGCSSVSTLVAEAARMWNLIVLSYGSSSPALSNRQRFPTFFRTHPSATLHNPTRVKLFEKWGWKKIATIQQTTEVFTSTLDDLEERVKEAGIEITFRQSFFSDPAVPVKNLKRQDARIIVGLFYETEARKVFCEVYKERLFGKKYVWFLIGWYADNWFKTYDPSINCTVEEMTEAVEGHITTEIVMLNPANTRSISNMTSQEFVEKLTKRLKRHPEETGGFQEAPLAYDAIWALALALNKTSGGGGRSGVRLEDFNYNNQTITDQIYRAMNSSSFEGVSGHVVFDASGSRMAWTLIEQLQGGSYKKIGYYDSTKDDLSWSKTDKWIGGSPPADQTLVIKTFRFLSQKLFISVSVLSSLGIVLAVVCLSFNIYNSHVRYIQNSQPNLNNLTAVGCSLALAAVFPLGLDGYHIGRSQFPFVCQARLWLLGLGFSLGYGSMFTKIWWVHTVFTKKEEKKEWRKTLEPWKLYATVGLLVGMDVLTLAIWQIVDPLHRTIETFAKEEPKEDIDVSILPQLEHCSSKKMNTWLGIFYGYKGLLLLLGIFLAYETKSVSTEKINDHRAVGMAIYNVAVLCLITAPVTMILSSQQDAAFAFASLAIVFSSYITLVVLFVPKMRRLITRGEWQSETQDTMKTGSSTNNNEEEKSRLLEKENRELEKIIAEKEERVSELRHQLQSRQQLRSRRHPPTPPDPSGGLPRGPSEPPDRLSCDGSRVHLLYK
Chain of GABA-B receptor (O88871 41-940): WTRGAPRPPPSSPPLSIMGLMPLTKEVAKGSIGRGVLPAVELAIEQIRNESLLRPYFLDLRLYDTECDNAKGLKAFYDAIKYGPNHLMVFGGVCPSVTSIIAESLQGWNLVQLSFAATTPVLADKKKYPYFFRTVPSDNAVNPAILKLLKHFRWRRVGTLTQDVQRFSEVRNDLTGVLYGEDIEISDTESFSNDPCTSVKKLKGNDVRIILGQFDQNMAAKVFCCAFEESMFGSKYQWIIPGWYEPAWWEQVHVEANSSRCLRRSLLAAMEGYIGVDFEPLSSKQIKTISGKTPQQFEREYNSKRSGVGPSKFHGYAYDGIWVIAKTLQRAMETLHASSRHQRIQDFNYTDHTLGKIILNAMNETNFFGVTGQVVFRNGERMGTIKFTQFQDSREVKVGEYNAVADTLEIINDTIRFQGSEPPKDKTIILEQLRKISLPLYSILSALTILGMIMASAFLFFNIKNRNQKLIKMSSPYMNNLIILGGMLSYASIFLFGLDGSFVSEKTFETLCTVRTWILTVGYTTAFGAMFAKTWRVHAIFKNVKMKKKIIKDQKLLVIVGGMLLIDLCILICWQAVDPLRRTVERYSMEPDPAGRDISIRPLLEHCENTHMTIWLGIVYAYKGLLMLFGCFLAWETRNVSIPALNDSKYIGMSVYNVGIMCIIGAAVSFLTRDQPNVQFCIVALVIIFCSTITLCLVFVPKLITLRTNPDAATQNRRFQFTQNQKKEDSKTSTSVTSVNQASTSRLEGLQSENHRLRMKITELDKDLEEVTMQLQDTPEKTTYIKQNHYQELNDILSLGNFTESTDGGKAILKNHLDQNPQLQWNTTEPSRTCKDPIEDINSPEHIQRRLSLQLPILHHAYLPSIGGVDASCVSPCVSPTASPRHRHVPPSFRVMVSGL
Membranes from rat brain cortex were prepared as described in detail by Olpe et al. and stored at concentrations of 1.66 mg/mL protein at −80° C. until required. (Olpe, H.-R, et al. Eur J Pharmacol 1990; 187: 27-38).
[^35S]GTPgS Binding Assay
The samples were incubated at room temperature for 60 minutes on a shaker. The incubation was stopped by rapid vacuum filtration over glass-fiber filter plates (UniFilter-96 well, GF/B membrane plates, PerkinElmer) using a 96-well plate harvester (TOMTEK© Harvester). The UniFilter plate was washed five times with ice-cold wash buffer (50 mM Tris-HCl buffer, pH 7.7, 10 mM MgCl2, and 100 mM NaCl. After filtration the plate was dried for 90 minutes at 55° C. The plates were closed on the bottom with black sealing membranes, and liquid scintillation cocktail (35 μL, Betaplate Scint, PerkinElmer) was added to each well. After sealing the top of the plate, an additional incubation step of 90 minutes at room temperature followed before measuring the plate. The amount of membrane-bound [^35S]GTPgS was measured using a 96-well plate reader (Microbeta®, PerkinElmer). Nonspecific binding was measured in the presence of unlabeled 10 μM of GTPgS (Millipore) and without GABA. Basal binding was measured in the absence of 1 μM GABA, and maximal binding was measured in the presence of GABA using 1 mM GABA concentrations.
Data analysis. The concentration-response curves of compounds of the present disclosure in the presence of EC25 of GABA-B receptor agonist were generated using the GraphPad Prism® program (GraphPad Software, San Diego, Calif.). Data was normalized using basal binding as 0% and maximal binding as 100%. The curves were fitted by nonlinear regression allowing determination of EC50 values from sigmoidal dose-response curves. Each curve was performed using triplicate sample per date point and 10 concentrations.
(In general: Binding of GTPγS marks nucleotide exchange on a G protein.)
On to `Cc1nn(CCc2ccc(Cl)cc2)c(=O)c2c(C)noc12` [Example 60, 5-[2-(4-chlorophenyl)ethyl]-3,7-dimethyl[1,2]oxazolo[4,5-d]pyridazin-4(5H)-one], for which the EC50 is greater than 10 µM.

With `CC(=O)Nc1cc(-c2nn(Cc3ccc(F)c(C(F)(F)F)c3)c(=O)c3c(C)noc23)ccc1F` [Example 61, N-(2-fluoro-5-{5-[4-fluoro-3-(trifluoromethyl)benzyl]-3-methyl-4-oxo-4,5-dihydro[1,2]oxazolo[4,5-d]pyridazin-7-yl}phenyl)acetamide], the half-maximal effective concentration (EC50) was greater than 10 µM.

Consider `COc1ccc(F)cc1-c1nn(C(C)c2ccc(Cl)cc2)c(=O)c2c(C)noc12` (stereo not drawn) [Example 63, 5-[1-(4-chlorophenyl)ethyl]-7-(5-fluoro-2-methoxyphenyl)-3-methyl[1,2]oxazolo[4,5-d]pyridazin-4(5H)-one], for which the EC50 is 0.491 µM.

Take `COc1ccc(NC(C)=O)cc1-c1nn(Cc2ccc(C(F)(F)F)cc2)c(=O)c2c(C)noc12` [Example 64, N-(4-methoxy-3-{3-methyl-4-oxo-5-[4-(trifluoromethyl)benzyl]-4,5-dihydro[1,2]oxazolo[4,5-d]pyridazin-7-yl}phenyl)acetamide]: the EC50 stood at 0.644 µM.

Consider `Cc1noc2c(-c3cccc(N)c3C(N)=O)nn(C(C)c3ccc(Cl)cc3)c(=O)c12` (stereo not drawn) [Example 65, 2-amino-6-{5-[1-(4-chlorophenyl)ethyl]-3-methyl-4-oxo-4,5-dihydro[1,2]oxazxazolo[4,5-d]pyridazin-7-yl}benzamide], for which the EC50 amounted to 1.85 µM.

As for `COc1ccc(Cn2nc(-c3ccc(F)cc3)c3onc(C)c3c2=O)cc1C(F)(F)F` [Example 66, 7-(4-fluorophenyl)-5-[4-methoxy-3-(trifluoromethyl)benzyl]-3-methyl[1,2]oxazolo[4,5-d]pyridazin-4(5H)-one], the concentration for a half-maximal effect (EC50) came to 2.79 µM.

As to `COc1ccccc1-c1nn(Cc2ccc(Cl)cc2)c(=O)c2c(C)noc12` [Example 67, 5-(4-chlorobenzyl)-7-(2-methoxyphenyl)-3-methyl[1,2]oxazolo[4,5-d]pyridazin-4(5H)-one], the EC50 amounted to 2.13 µM.

`COc1ccc(OC)c(-c2nn([C@@H](C)c3ccc(Cl)cc3)c(=O)c3c(C4CC4)noc23)c1` [Example 68, 5-[(1S)-1-(4-chlorophenyl)ethyl]-3-cyclopropyl-7-(2,5-dimethoxyphenyl)[1,2]oxazolo[4,5-d]pyridazin-4(5H)-one]: the 50% effective concentration (EC50) is 0.048 µM.

For `CC(=O)Nc1cccc(-c2nn(Cc3ccc(Cl)cc3)c(=O)c3c(C)noc23)c1` [Example 70, N-{3-[5-(4-chlorobenzyl)-3-methyl-4-oxo-4,5-dihydro[1,2]oxazolo[4,5-d]pyridazin-7-yl]phenyl}acetamide], the EC50 is 0.935 µM.

Consider `COCc1noc2c(-c3cc(OC)ccc3OC)nn(Cc3ccc(Cl)cc3)c(=O)c12` [Example 71, 5-(4-chlorobenzyl)-7-(2,5-dimethoxyphenyl)-3-(methoxymethyl)[1,2]oxazolo[4,5-d]pyridazin-4(5H)-one], for which the EC50 amounted to 2.21 µM.

Regarding `CC(=O)Nc1cccc(-c2nn([C@@H](C)c3ccc(Cl)cc3)c(=O)c3c(C)noc23)c1` [Example 72, N-(3-{5-[(1S)-1-(4-chlorophenyl)ethyl]-3-methyl-4-oxo-4,5-dihydro[1,2]oxazolo[4,5-d]pyridazin-7-yl}phenyl)acetamide], the concentration for a half-maximal effect (EC50) was found to be 7.7 µM.

In the case of `COc1ccc(C(=O)O)cc1-c1nn(C(C)c2ccc(Cl)cc2)c(=O)c2c(C)noc12` (stereo not drawn) [Example 73], the EC50 was 0.039 µM.

Regarding `Cc1ccccc1-c1nn(Cc2ccc(Cl)cc2)c(=O)c2c(C)noc12` [Example 76, 5-(4-chlorobenzyl)-3-methyl-7-(2-methylphenyl)[1,2]oxazolo[4,5-d]pyridazin-4(5H)-one], the half-maximal effective concentration (EC50) was 1.93 µM.

Consider `Cc1noc2c(-c3cc(F)cc(F)c3N)nn(C(C)c3ccc(Cl)cc3)c(=O)c12` (stereo not drawn) [Example 77, 7-(2-amino-3,5-difluorophenyl)-5-[1-(4-chlorophenyl)ethyl]-3-methyl[1,2]oxazolo[4,5-d]pyridazin-4(5H)-one], for which the EC50 is 2.48 µM.

With `CC(=O)Nc1cccc(-c2nn(C(C)c3ccc(Cl)cc3)c(=O)c3c(C)noc23)c1` (stereo not drawn) [Example 78, N-(3-{5-[1-(4-chlorophenyl)ethyl]-3-methyl-4-oxo-4,5-dihydro[1,2]oxazolo[4,5-d]pyridazin-7-yl}phenyl)acetamide], the EC50 is 6.35 µM.

As for `COc1ccc(C(F)(F)F)cc1-c1nn(C(C)c2ccc(Cl)cc2)c(=O)c2c(C)noc12` (stereo not drawn) [Example 79, 5-[1-(4-chlorophenyl)ethyl]-7-[2-methoxy-5-(trifluoromethyl)phenyl]-3-methyl[1,2]oxazolo[4,5-d]pyridazin-4(5H)-one], the half-maximal effective concentration (EC50) was found to be 0.511 µM.

`CNC(=O)c1ccc(OC)c(-c2nn([C@@H](C)c3ccc(Cl)cc3)c(=O)c3c(C)noc23)c1` [Example 82, 3-{5-[(1S)-1-(4-chlorophenyl)ethyl]-3-methyl-4-oxo-4,5-dihydro[1,2]oxazolo[4,5-d]pyridazin-7-yl}-4-methoxy-N-methylbenzamide]: the EC50 came out at 0.023 µM.

For `Cc1noc2c(-c3ccc(F)cc3)nn(Cc3ccc(Cl)cc3)c(=O)c12` [Example 83, 5-(4-chlorobenzyl)-7-(4-fluorophenyl)-3-methyl[1,2]oxazolo[4,5-d]pyridazin-4(5H)-one], the 50% effective concentration (EC50) amounted to 3.09 µM.

As to `CC(=O)Nc1cccc(-c2nn(Cc3cc(C(F)(F)F)ccc3F)c(=O)c3c(C)noc23)c1` [Example 85, N-(3-{5-[2-fluoro-5-(trifluoromethyl)benzyl]-3-methyl-4-oxo-4,5-dihydro[1,2]oxazolo[4,5-d]pyridazin-7-yl}phenyl)acetamide], the concentration giving a half-maximal response (EC50) came out at 2.62 µM.

Consider `Cc1noc2c(-c3cccnc3N)nn(C(C)c3ccc(Cl)cc3)c(=O)c12` (stereo not drawn) [Example 86, 7-(2-aminopyridin-3-yl)-5-[1-(4-chlorophenyl)ethyl]-3-methyl[1,2]oxazolo[4,5-d]pyridazin-4(5H)-one], for which the EC50 stood at 2.76 µM.

`COc1ccc(-c2nn(Cc3ccc(Cl)cc3)c(=O)c3c(C)noc23)c(OC)c1` [Example 87, 5-(4-chlorobenzyl)-7-(2,4-dimethoxyphenyl)-3-methyl[1,2]oxazolo[4,5-d]pyridazin-4(5H)-one]: the half-maximal effective concentration (EC50) was 1.03 µM.

Take `CCCc1noc2c(-c3cccc(NC(C)=O)c3)nn(Cc3ccc(Cl)cc3)c(=O)c12` [Example 91, N-{3-[5-(4-chlorobenzyl)-4-oxo-3-propyl-4,5-dihydro[1,2]oxazolo[4,5-d]pyridazin-7-yl]phenyl}acetamide]: the EC50 was determined as 2.12 µM.

Turning to `COc1ccc(OC)c(-c2nn(Cc3ccc(C(F)(F)F)cc3)c(=O)c3c(C)noc23)c1` [Example 95, 7-(2,5-dimethoxyphenyl)-3-methyl-5-[4-(trifluoromethyl)benzyl][1,2]oxazolo[4,5-d]pyridazin-4(5H)-one], the EC50 came to 1.74 µM.

As for `Cc1noc2c(-c3cc(F)ccc3N)nn(C(C)c3ccc(Cl)cc3)c(=O)c12` (stereo not drawn) [Example 97, 7-(2-amino-5-fluorophenyl)-5-[1-(4-chlorophenyl)ethyl]-3-methyl[1,2]oxazolo[4,5-d]pyridazin-4(5H)-one], the EC50 was 1.85 µM.

Consider `COc1ccc(C(=O)N2CCCC2)cc1-c1nn(C(C)c2ccc(Cl)cc2)c(=O)c2c(C)noc12` (stereo not drawn) [Example 98, 5-[1-(4-chlorophenyl)ethyl]-7-[2-methoxy-5-(pyrrolidin-1-ylcarbonyl)phenyl]-3-methyl[1,2]oxazolo[4,5-d]pyridazin-4(5H)-one], for which the 50% effective concentration (EC50) came to 0.45 µM.

With `Cc1noc2c(-c3ccccc3O)nn(C(C)c3ccc(Cl)cc3)c(=O)c12` (stereo not drawn) [Example 100, 5-[1-(4-chlorophenyl)ethyl]-7-(2-hydroxyphenyl)-3-methyl[1,2]oxazolo[4,5-d]pyridazin-4(5H)-one], the concentration giving a half-maximal response (EC50) is 0.667 µM.

Consider `COc1ccccc1-c1nn(Cc2ccc(OC)c(C(F)(F)F)c2)c(=O)c2c(C)noc12` [Example 101, 7-(2-methoxyphenyl)-5-[4-methoxy-3-(trifluoromethyl)benzyl]-3-methyl[1,2]oxazolo[4,5-d]pyridazin-4(5H)-one], for which the 50% effective concentration (EC50) stood at 3.71 µM.

Regarding `COc1ccc(OC)c(-c2nn(Cc3ccc(Cl)cc3)c(=O)c3c(C)noc23)c1` [Example 102, 5-(4-chlorobenzyl)-7-(2,5-dimethoxyphenyl)-3-methyl[1,2]oxazolo[4,5-d]pyridazin-4(5H)-one], the EC50 was 0.846 µM.

Regarding `COc1ccc(NC(C)=O)cc1-c1nn(C(C)c2ccc(C(F)(F)F)cc2)c(=O)c2c(C)noc12` (stereo not drawn) [Example 103, N-[4-methoxy-3-(3-methyl-4-oxo-5-{(1)-1-[4-(trifluoromethyl)phenyl]ethyl}-4,5-dihydro[1,2]oxazolo[4,5-d]pyridazin-7-yl)phenyl]acetamide], the EC50 came out at 0.439 µM.

Regarding `COc1ccc(NC(C)=O)cc1-c1nn([C@H](C)c2ccc(C(F)(F)F)cc2)c(=O)c2c(C)noc12` [Example 105, N-[4-methoxy-3-(3-methyl-4-oxo-5-{(1R)-1-[4-(trifluoromethyl)phenyl]ethyl}-4,5-dihydro[1,2]oxazolo[4,5-d]pyridazin-7-yl)phenyl]acetamide], the concentration giving a half-maximal response (EC50) was 0.033 µM.
